Assay results published in ChEMBL document CHEMBL1201862, “PubChem BioAssay data set” (2004).
The source made the active and inactive calls.

Experiments:
[1] = target: T1, Mannose-6-phosphate isomerase (Homo sapiens, UniProt P34949); assay: human PMI inhibitors, high substrate, primary screen, biochemical, fluorescence intensity, high mannose 6-phosphate (AID 1220)
T1 sequence (P34949 whole entry): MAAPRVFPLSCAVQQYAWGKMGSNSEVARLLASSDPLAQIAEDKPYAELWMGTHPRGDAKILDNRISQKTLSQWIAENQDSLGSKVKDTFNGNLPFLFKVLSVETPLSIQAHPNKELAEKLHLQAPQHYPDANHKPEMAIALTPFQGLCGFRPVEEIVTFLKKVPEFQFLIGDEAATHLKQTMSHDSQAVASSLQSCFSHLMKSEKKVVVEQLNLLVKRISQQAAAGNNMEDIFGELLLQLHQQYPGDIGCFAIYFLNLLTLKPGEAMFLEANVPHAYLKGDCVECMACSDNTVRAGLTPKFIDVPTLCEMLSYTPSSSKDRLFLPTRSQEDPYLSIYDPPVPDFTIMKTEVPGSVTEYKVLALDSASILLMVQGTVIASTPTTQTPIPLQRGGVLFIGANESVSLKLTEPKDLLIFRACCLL

[2] = target: ALK tyrosine kinase receptor (Homo sapiens, UniProt Q9UM73); format: functional;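 also: ALK tested as one member of a kinase panel screen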
[3] = target: T2, Serine/threonine-protein kinase D3 (Homo sapiens, UniProt O94806); format: functional;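 also: determined within a kinase panel screen, with PRKCN as the panel member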
T2 sequence (O94806 whole entry): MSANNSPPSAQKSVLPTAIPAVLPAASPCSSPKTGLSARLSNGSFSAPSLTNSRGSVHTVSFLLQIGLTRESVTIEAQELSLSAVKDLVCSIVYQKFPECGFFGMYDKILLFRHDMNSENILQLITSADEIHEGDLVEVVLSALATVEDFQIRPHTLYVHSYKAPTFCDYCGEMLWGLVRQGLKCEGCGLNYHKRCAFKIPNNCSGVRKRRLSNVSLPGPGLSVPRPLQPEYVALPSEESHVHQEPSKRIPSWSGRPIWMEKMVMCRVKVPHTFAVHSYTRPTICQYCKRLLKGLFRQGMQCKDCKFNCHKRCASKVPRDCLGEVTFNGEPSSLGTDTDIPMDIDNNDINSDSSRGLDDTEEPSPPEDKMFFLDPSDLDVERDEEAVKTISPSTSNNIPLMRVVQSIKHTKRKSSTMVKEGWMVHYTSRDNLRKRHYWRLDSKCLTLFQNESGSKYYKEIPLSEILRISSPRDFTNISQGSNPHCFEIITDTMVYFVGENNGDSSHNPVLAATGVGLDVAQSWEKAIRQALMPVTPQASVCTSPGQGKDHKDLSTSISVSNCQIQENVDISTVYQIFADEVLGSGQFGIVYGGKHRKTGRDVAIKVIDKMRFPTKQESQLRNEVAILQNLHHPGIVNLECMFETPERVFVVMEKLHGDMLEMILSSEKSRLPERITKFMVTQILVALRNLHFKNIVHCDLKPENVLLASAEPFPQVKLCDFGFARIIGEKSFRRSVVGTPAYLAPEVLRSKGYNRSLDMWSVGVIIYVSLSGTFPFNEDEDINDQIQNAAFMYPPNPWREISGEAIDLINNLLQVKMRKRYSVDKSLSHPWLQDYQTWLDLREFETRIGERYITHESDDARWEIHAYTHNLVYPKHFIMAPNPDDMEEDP

[4] = target: Serine/threonine-protein kinase pim-1 (Homo sapiens, UniProt P11309); format: functional
Serine/threonine-protein kinase pim-1, sequence (P11309 whole entry): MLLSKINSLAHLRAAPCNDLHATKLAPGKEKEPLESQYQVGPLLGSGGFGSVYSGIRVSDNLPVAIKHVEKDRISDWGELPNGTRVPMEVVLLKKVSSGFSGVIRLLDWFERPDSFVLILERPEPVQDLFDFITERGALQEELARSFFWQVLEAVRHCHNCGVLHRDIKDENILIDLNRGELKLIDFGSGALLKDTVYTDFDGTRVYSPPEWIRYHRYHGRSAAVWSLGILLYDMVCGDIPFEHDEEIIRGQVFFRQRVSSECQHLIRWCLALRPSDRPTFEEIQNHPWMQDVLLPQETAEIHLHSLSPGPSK

[5] = target: Tyrosine-protein kinase BTK (Homo sapiens, UniProt Q06187); format: functional
Tyrosine-protein kinase BTK, sequence (Q06187 whole entry): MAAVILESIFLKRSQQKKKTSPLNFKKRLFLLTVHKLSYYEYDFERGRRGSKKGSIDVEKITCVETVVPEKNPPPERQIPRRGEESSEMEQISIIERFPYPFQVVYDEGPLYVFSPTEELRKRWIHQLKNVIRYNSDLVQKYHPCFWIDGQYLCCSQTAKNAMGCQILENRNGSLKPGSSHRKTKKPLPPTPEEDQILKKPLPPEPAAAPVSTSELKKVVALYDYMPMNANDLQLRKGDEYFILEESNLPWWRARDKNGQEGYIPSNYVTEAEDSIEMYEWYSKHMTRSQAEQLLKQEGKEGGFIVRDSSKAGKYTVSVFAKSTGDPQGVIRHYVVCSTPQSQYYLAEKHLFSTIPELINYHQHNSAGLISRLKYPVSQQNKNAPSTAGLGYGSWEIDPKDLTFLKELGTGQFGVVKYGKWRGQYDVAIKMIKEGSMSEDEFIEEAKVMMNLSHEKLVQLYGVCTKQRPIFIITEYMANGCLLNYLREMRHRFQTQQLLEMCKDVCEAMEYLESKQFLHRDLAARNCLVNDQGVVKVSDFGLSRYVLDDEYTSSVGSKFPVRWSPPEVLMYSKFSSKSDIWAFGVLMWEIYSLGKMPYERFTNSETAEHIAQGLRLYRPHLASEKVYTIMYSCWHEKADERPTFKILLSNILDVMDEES

[6] = target: Fibroblast growth factor receptor 1 (Homo sapiens, UniProt P11362); format: functional
Fibroblast growth factor receptor 1, sequence (P11362 whole entry): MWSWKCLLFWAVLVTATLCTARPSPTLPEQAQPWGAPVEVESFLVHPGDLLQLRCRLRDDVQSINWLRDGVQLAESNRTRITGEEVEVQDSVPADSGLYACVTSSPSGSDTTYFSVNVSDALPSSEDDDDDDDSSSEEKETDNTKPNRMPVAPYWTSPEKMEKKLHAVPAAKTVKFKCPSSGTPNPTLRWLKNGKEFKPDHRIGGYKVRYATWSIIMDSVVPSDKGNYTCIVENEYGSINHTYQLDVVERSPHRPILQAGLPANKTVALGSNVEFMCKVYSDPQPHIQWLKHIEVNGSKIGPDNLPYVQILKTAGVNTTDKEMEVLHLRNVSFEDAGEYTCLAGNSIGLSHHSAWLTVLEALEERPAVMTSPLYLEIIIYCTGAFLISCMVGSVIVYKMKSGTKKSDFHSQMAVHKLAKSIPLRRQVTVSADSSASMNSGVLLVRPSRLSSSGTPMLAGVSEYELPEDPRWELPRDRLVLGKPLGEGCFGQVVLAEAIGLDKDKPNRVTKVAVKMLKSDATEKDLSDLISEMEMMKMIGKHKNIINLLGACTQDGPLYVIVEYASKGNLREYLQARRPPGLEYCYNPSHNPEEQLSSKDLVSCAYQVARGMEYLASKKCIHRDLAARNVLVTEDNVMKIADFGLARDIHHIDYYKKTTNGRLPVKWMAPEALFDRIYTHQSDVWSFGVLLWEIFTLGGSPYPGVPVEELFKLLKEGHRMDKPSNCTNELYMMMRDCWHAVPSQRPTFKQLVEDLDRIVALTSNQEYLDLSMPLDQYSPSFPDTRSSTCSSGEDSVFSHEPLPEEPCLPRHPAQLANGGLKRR

[7] = target: Tyrosine-protein kinase Lyn (Homo sapiens, UniProt P07948); format: functional;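 also: lyn as one member of a kinase panel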
Tyrosine-protein kinase Lyn, sequence (P07948 whole entry): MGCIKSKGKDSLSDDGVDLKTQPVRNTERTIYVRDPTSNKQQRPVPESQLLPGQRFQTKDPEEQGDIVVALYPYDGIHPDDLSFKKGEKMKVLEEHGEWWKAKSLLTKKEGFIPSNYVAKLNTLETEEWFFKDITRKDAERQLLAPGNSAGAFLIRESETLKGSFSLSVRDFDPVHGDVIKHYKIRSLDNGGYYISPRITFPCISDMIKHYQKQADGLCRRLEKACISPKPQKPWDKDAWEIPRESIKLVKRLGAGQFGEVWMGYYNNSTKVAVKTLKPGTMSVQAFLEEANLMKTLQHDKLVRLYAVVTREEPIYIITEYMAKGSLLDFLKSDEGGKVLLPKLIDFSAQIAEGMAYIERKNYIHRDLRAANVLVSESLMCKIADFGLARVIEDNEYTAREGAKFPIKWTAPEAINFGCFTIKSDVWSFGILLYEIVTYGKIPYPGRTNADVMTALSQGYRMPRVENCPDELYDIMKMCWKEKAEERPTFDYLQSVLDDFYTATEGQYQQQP

[8] = target: Mitogen-activated protein kinase 9 (Homo sapiens, UniProt P45984); format: functional;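 also: value from a kinome panel profiling assay, MAPK9 panel entry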
Mitogen-activated protein kinase 9, sequence (P45984 whole entry): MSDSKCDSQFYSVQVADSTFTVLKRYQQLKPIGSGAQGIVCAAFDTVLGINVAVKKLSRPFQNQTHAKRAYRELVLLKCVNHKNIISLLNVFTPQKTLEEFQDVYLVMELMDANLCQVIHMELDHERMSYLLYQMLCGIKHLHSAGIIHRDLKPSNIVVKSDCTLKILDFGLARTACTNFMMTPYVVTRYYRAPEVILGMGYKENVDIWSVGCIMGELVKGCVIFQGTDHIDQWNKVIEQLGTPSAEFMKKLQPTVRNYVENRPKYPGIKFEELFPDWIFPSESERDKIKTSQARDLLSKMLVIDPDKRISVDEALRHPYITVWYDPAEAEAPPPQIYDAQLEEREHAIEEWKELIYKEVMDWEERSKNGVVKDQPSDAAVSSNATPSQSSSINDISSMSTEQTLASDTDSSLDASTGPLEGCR

[9] = target: Protein kinase C gamma type (Homo sapiens, UniProt P05129); format: functional
[10] = target: Glycogen synthase kinase-3 alpha (Homo sapiens, UniProt P49840); format: functional;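 also: GSK3A result taken from a broad kinome-wide kinase panel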
Glycogen synthase kinase-3 alpha, sequence (P49840 whole entry): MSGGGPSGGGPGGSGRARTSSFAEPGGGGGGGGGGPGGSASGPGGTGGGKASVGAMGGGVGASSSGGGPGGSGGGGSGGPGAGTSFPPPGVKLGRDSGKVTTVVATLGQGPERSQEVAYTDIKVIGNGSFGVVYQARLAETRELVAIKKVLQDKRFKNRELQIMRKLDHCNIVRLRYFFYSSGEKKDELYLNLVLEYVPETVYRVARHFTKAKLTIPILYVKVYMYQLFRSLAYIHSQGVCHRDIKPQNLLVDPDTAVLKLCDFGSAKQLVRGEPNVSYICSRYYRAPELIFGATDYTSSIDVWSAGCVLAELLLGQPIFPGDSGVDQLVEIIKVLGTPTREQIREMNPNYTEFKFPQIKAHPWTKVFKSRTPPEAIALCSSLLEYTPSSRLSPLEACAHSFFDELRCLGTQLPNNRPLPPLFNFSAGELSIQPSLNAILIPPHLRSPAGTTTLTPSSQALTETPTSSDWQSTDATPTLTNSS

[11] = target: T3, Serine/threonine-protein kinase Chk1 (Homo sapiens, UniProt O14757); format: functional;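 also: measured as one member of a kinome-wide kinase profiling panel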
T3 sequence (O14757 whole entry): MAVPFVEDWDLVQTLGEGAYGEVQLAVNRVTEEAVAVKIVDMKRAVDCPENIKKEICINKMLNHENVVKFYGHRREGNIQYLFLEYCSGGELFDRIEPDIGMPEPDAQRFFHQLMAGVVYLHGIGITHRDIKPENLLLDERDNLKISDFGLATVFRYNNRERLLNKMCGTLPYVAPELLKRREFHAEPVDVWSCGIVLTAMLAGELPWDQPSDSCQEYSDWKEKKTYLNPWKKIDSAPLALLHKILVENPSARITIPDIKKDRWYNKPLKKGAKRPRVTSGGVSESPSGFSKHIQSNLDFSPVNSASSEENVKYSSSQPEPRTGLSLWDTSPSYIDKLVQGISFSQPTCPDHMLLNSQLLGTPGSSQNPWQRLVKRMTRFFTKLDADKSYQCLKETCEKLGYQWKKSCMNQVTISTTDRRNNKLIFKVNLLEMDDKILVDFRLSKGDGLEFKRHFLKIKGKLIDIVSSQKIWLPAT

[12] = target: Vascular endothelial growth factor receptor 2 (Homo sapiens, UniProt P35968); format: functional
Vascular endothelial growth factor receptor 2, sequence (P35968 whole entry): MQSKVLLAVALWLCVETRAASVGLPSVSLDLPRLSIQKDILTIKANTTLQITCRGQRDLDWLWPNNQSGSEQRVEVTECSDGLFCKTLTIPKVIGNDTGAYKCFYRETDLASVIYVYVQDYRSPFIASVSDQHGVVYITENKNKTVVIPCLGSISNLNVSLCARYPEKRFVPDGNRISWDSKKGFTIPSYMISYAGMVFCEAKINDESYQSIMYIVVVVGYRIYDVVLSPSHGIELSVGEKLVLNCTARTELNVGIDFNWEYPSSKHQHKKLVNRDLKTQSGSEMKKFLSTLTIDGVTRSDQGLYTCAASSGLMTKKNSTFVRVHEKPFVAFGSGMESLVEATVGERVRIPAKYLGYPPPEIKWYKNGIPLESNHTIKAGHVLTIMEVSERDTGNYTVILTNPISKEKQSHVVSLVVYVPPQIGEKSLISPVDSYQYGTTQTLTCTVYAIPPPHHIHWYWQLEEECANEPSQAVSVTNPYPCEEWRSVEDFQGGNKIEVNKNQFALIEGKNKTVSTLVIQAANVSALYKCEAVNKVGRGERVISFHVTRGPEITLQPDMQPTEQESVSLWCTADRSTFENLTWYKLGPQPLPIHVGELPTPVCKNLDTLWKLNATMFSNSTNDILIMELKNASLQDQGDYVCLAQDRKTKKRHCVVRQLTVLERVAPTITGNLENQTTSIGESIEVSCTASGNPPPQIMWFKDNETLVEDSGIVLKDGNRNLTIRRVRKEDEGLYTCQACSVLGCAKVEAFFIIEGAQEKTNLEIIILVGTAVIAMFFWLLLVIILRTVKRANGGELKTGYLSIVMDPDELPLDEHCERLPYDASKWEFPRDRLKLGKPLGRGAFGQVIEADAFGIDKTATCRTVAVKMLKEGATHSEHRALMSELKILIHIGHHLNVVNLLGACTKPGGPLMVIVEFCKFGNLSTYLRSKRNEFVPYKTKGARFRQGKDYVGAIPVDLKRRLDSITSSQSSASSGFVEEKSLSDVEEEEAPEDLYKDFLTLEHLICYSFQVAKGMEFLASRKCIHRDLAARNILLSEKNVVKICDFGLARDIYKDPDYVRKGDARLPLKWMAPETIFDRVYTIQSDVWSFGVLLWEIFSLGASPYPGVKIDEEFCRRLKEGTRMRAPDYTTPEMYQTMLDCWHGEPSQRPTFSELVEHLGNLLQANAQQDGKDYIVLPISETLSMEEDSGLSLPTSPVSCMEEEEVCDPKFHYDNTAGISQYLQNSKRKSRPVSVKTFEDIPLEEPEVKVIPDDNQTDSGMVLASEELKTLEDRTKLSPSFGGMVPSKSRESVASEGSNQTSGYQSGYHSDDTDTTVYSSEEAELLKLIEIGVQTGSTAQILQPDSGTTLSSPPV

[13] = target: Cyclin-dependent kinase 7 (Homo sapiens, UniProt P50613); format: functional;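 also: value comes from a kinome-wide kinase profiling panel in which CDK7 is one member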
Cyclin-dependent kinase 7, sequence (P50613 whole entry): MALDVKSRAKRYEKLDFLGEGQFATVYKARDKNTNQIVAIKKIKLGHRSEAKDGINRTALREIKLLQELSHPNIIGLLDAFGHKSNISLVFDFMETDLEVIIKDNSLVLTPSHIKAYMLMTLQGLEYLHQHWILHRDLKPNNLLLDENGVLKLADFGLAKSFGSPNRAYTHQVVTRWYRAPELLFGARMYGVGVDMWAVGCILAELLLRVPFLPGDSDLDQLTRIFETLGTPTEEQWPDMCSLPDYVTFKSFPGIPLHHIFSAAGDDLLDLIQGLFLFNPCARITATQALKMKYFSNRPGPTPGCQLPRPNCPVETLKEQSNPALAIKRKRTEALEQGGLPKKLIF

Structure (SMILES)	IC50 [1]	Ki [2]	Ki [3]	Ki [4]	Ki [5]	Ki [6]	Ki [7]	Ki [8]	Ki [9]	Ki [10]	Ki [11]	Ki [12]	Ki [13]
COc1ccc(-n2c(NC(=O)c3ccco3)c(C#N)c3nc4ccccc4nc32)cc1	> 50 µM (not active)	–	–	–	–	–	–	–	–	–	–	–	–
Cc1n[nH]c2ccc(-c3cncc(OCC(N)Cc4ccc(Cl)c(Cl)c4)c3)cc12 (stereo not drawn)	–	0.794 µM (active)	0.00398 µM (active)	0.00631 µM (active)	> 1.26 µM (inactive)	> 5.01 µM (inactive)	> 1.58 µM (inactive)	3.16 µM (active)	0.0158 µM (active)	0.1 µM (active)	7.94 µM (active)	> 7.94 µM (inactive)	0.02 µM (active)
[2H]C([2H])([2H])Oc1cccc(C(C)NC(=O)c2sc(-c3ccncc3)nc2C)c1 (stereo not drawn)	–	> 6.31 µM (inactive)	> 3.98 µM (inactive)	> 6.31 µM (inactive)	> 6.31 µM (inactive)	> 3.98 µM (inactive)	–	> 3.98 µM (inactive)	–	3.16 µM (active)	> 3.16 µM (inactive)	> 2.51 µM (inactive)	> 3.98 µM (inactive)
